Measured values as given in US10709784B2, “Metal chelating compositions and methods for controlling the growth or activities of a living cell or organism” (CHELATION PARTNERS INCORPORATED, priority 2011, dated 2020).
≈ marks a conversion by molar mass, not a printed value. Where two headings read alike, the source gives them in different places.

Key:
Format in all cases: cell-based
[1] = tested on: Candida albicans ATCC 10231; test: Nystatin MIC (80% growth inhibition) with soluble chelator
Procedure: Candida albicans ATCC 10231, yeast cells, as grown in defined medium with no additional added Fe as in example 18 and example 19, were tested in the same media for their sensitivities to nystatin, an antifungal agent as proto-typical of the class of polyene antibiotics that are commonly used to control fungal growth and pathogenesis in humans and with nystatin plus the soluble chelating composition, as prepared in example 4. Nystatin as typical of the polyene class of antifungal agents causes membrane damage as part of its mechanism of anti-fungal activity.

[2] = tested on: Staphylococcus aureus ATCC #29213; test: Antibiotic MIC in untreated versus iron-extracted RPMI
[3] = tested on: Escherichia coli ATCC #25922; test: as above
Text: (§1) Test microorganisms included Pseudomonas aeruginosa strain PA01, Escherichia coli ATCC #25922 and Staphylococcus aureus ATCC #29213.

[4] = tested on: Pseudomonas aeruginosa strain PA01; test: as above
Text: as §1

[5] = tested on: antibiotic resistant strains of Staphylococcus aureus; test: NCCLS MIC antibiotic sensitivity with added chelator; details: for MIC penicillin: Strain WBG8701
Procedure: Sensitive or antibiotic resistant strains of Staphylococcus aureus (S. aureus) were grown on blood agar plates overnight at 37° C. Four to six individual colonies of each strain were harvested into Mueller-Hinton broth (MHB) and incubated at 37° C. until they reached an optical density equal to or exceeding a 0.5 McFarland standard. The culture was diluted with MHB to equal 0.5 McFarland standard. Dilutions (10^−1) of these standards were used for inocula. Various stains of antibiotic resistant Staphylococcus aureus were used for these tests as shown in the results below. It should be appreciated that growing the bacterial strains on blood agar and then in MHB ensured the inoculum was not restricted for iron prior to the test but rather the bacterial cells were with ample endogenous iron supply.
A range of two-fold dilutions of a test antibiotic was prepared in MHB. […] Soluble and insoluble chelating compositions, as prepared in Example 6 or Example 5, or the free iron chelating agent deferiprone were added to the antibiotic containing tubes at known concentrations of iron binding capacity (referred to as iron binding equivalents) to allow direct comparison of the different compositions or free chelator. The final volume per tube was 500 μl. Bacterial inoculum, 25 μl of the 10^−1 dilutions of the appropriate S. aureus strain was added to each tube. The tubes were incubated at an angle on a reciprocating shaker at 37° C. overnight and results were scored as growth based on turbidity or no growth (lack of turbidity). The Minimum Inhibitory Concentration (MIC) for the antibiotic was determined from the growth results.
A series of tests was set up as in Example 15 with various antibiotic anti-cellular agents. The clinically isolated strains were obtained from the culture collection of Warren Grubb, Curtin University, Perth, Australia.
A series of antibiotic sensitivity tests was set up as in example 16 utilizing the soluble chelating compositions as prepared in Example 6. Separate test series with different clinically isolated Staphylococcus aureus strains, as obtained from the culture collection of Warren Grubb, Curtin University, Perth, Australia, and various antibiotics were employed but for each series a control test comprising addition of iron sufficient to supply two times the chelating capacity of the supplied chelating composition was also included.

[6] = tested on: Candida albicans ATCC 10231; test: Growth with chelating materials of different molecular weight, 84 hours; details: 30° C., defined medium without added iron, FIG. 8
Procedure: Candida albicans ATCC 10231 was tested for its sensitivities to: the medical chelator deferiprone (#1 in the graph of FIG. 8) (a product of Apotex Pharmaceuticals); the precursor chemicals used for the preparation of soluble chelating compositions of the present invention, including 3-hydroxy-2-methyl-4-pyrone (#2 in the graph of FIG. 8), AHMP as from Example 1 (#3 in the graph of FIG. 8) and MAHMP as from Example 2 (#4 in the graph of FIG. 8) and also the soluble chelating composition as from Example 4 (#5 in the graph of FIG. 8). The yeast was grown in defined medium as for Example 18 with no additional added iron (i.e., the only but adequate Fe available for the yeast was contributed from being present along with the other added medium components). Growth of the yeast in the defined media with added test chelating materials was compared to control samples that had not received any of the chelating materials following 84 hours of incubation and growth at 30° C. […] These chelators being internalized by the yeast were incapable of restricting iron supply to the yeast cells. […] Thus, low molecular weight chelators such as deferiprone and similar compounds permitted growth while the soluble chelating composition that contained functional groups similar to deferiprone but was a molecular weight higher than 1500 Daltons restricted growth, eventhough the various compounds tested were each capable of binding iron through their pyridinone functionality.

[7] = tested on: Candida albicans ATCC 10231; test: Fluorocytosine MIC (80% growth inhibition) with soluble chelator
Procedure: Candida albicans ATCC 10231, yeast cells, as grown in defined medium with no additional added Fe as in example 18 and example 19, were tested in the same media for their sensitivities to 5-fluorocytosine, as a proto-typical example of the class of […] that are commonly used to control fungal and cancer cell growth in humans and with fluorocytosine plus the soluble chelating composition, as prepared in example 4.

[8] = tested on: Candida albicans ATCC 10231; test: Preservative agent MIC (80% inhibition) challenge test with soluble chelator
[9] = Staphylococcus aureus, ATCC29213, Untreated RPMI 0.11 μM Fe, read-out: MIC
[10] = Escherichia coli, ATCC25922, Treated RPMI + 0.009 μM Fe, read-out: MIC
[11] = Escherichia coli, ATCC25922, Untreated RPMI 0.11 μM Fe, read-out: MIC
[12] = Pseudomonas aeruginosa, PA01, Treated RPMI + 0.09 μM Fe, read-out: MIC
[13] = Pseudomonas aeruginosa, PA01, Untreated RPMI 0.11 μM Fe, read-out: MIC
[14] = strain WBG525, No Chelator Added (control)
[15] = strain WBG525, plus Soluble Chelating Composition (Example 6) 1.1 mM Fe binding equivalents, * slight growth <5% of control
[16] = strain WBG525, plus Soluble Chelating Composition (Example 6) 2.2 mM Fe binding equivalents, * slight growth <5% of control
[17] = strain WBG4340, No Chelator Added (control)
[18] = Staphylococcus aureus, ATCC29213, Treated RPMI + 0.004 μM Fe, read-out: MIC

Compound: C[C@@H]1[C@H](O)[C@@H](C)/C=C/C=C/CC/C=C/C=C/C=C/C=C/C(O[C@H]2O[C@H](C)[C@@H](O)[C@H](N)[C@@H]2O)CC2O[C@](O)(CC(O)C(O)CCC(O)CC(O)CC(O)CC(=O)O[C@H]1C)CC(O)C2C(=O)O (stereo partly drawn) [Nystatin]
- Nystatin MIC ([1]; Nystatin alone, 4 d): 0.23 µg/mL
- Nystatin MIC ([1]; Nystatin alone, 10 d): 3.8 µg/mL
- Nystatin MIC ([1]; Nystatin alone, 21 d): 7.5 µg/mL
- Nystatin MIC ([1]; plus 25 μg/ml soluble chelator (example 4), 4 d): <0.12 µg/mL
- Nystatin MIC ([1]; plus 25 μg/ml soluble chelator (example 4), 10 d): 0.12 µg/mL
- Nystatin MIC ([1]; plus 25 μg/ml soluble chelator (example 4), 21 d): 0.47 µg/mL

Compound: CC[C@H]1OC(=O)[C@H](C)[C@@H](O[C@H]2C[C@@](C)(OC)[C@@H](O)[C@H](C)O2)[C@H](C)[C@@H](O[C@@H]2O[C@H](C)C[C@H](N(C)C)[C@H]2O)[C@](C)(OC)C[C@@H](C)C(=O)[C@H](C)[C@@H](O)[C@]1(C)O [Clarithromycin]
- MIC [2, 9]: 1 µg/mL (≈ 1.34 µM)
- MIC [3, 10]: 16 µg/mL
- MIC [3, 11]: > 512 µg/mL
- MIC [4, 12]: > 512 µg/mL
- MIC [4, 13]: > 512 µg/mL

Compound: NC[C@H]1O[C@H](O[C@H]2[C@H](O)[C@@H](O[C@H]3O[C@H](CO)[C@@H](O)[C@H](N)[C@H]3O)[C@H](N)C[C@@H]2N)[C@H](O)[C@@H](O)[C@@H]1O [Kanamycin]
- MIC (100% inhibition) antibiotic [5, 14]: 320 µg/mL (≈ 660 µM)
- MIC (100% inhibition) antibiotic [5, 15]: 20 µg/mL
- MIC (100% inhibition) antibiotic [5, 16]: 20 µg/mL

Compound: C=C(C)C(=O)NCCn1ccc(=O)c(O)c1C [MAHMP, 3-hydroxy-1-(β-methacrylamidoethyl)-2-methyl-4(1H)-pyridinone]
- growth of the yeast compared to control [6]: did not substantially restrict growth

Compound: Cc1occc(=O)c1O [3-hydroxy-2-methyl-4-pyrone]
- growth of the yeast compared to control [6]: did not substantially restrict growth

Compound: penicillin
- MIC penicillin ([5]; no chelator): 640 µg/mL
- MIC penicillin ([5]; plus 4.4 mM Fe binding equivalents soluble chelating composition (example 6)): 320 µg/mL
- MIC penicillin ([5]; plus iron-loaded chelating composition): did not lower the MIC

Compound: Neomycin
- MIC ([2]; Treated RPMI + 0.004 μM Fe): 1 µg/mL
- MIC ([2]; Untreated RPMI 0.11 μM Fe): 1 µg/mL
- MIC (100% inhibition) antibiotic [5, 17]: 1280 µg/mL
- MIC (100% inhibition) antibiotic ([5]; strain WBG4340, plus Soluble Chelating Composition (Example 6) 1.1 mM): 160 µg/mL
- MIC (100% inhibition) antibiotic ([5]; strain WBG4340, plus Soluble Chelating Composition (Example 6) 2.2 mM): 80 µg/mL
- MIC ([3]; Treated RPMI + 0.009 μM Fe): 2 µg/mL
- MIC ([3]; Untreated RPMI 0.11 μM Fe): 2 µg/mL
- MIC ([4]; Treated RPMI + 0.09 μM Fe): 16 µg/mL
- MIC ([4]; Untreated RPMI 0.11 μM Fe): 32 µg/mL

Compound: Cc1c(O)c(=O)ccn1CCN [AHMP, 1-aminoethyl-3-hydroxy-2-methyl-4(1H)-pyridinone]
- growth of the yeast compared to control [6]: did not substantially restrict growth

Compound: Gentamcin
- MIC (100% inhibition) antibiotic ([5]; strain WBG1320, No Chelator Added (control), * slight growth <5% of control): 320* μg/ml
- MIC (100% inhibition) antibiotic ([5]; strain WBG1320, plus Soluble Chelating Composition (Example 6) 1.1 mM, * slight growth <5% of control): 40* μg/ml
- MIC (100% inhibition) antibiotic ([5]; strain WBG1320, plus Soluble Chelating Composition (Example 6) 2.2 mM, * slight growth <5% of control): 20* μg/ml

Compound: Nc1nc(=O)[nH]cc1F [Fluorocytosine, 5-fluorocytosine]
- MIC ([7]; ATCC10231, 96 h, Fluorocytosine alone, 4 d): 0.025 µg/mL (≈ 0.194 µM)
- MIC ([7]; ATCC10231, 96 h, plus 25 μg/ml soluble chelator (example 4), 4 d): < 0.003 µg/mL
- MIC ([7]; ATCC10231, 240 h, Fluorocytosine alone, 10 d): 0.05 µg/mL (≈ 0.387 µM)
- MIC ([7]; ATCC10231, 240 h, plus 25 μg/ml soluble chelator (example 4), 10 d): 0.012 µg/mL
- MIC ([7]; ATCC10231, 504 h, Fluorocytosine alone, 21 d): 0.05 µg/mL (≈ 0.387 µM)
- MIC ([7]; ATCC10231, 504 h, plus 25 μg/ml soluble chelator (example 4), 21 d): 0.012 µg/mL

Compound: CC(=O)O[C@H]1C[C@@]2(C)[C@@H](C[C@@H](O)[C@H]3[C@@]4(C)CC[C@@H](O)[C@@H](C)[C@@H]4CC[C@@]32C)/C1=C(\CCC=C(C)C)C(=O)O [Fusidic acid]
- MIC [2, 18]: 0.0625 µg/mL
- MIC [2, 9]: 0.25 µg/mL (≈ 0.484 µM)
- MIC [3, 10]: > 512 µg/mL
- MIC [3, 11]: > 512 µg/mL
- MIC [4, 12]: > 512 µg/mL
- MIC [4, 13]: > 512 µg/mL

Compound: C/C(=C\C(=O)OCCCCCCCCC(=O)O)C[C@@H]1OC[C@H](C[C@@H]2O[C@H]2[C@@H](C)[C@H](C)O)[C@@H](O)[C@H]1O [Mupirocin]
- MIC [2, 18]: 0.0156 µg/mL
- MIC [2, 9]: 0.0625 µg/mL (≈ 0.125 µM)
- MIC [3, 10]: 64 µg/mL
- MIC [3, 11]: 128 µg/mL (≈ 256 µM)
- MIC [4, 12]: > 512 µg/mL
- MIC [4, 13]: > 512 µg/mL

Compound: CC1(C)S[C@@H]2[C@H](NC(=O)[C@H](N)c3ccccc3)C(=O)N2[C@H]1C(=O)O [Ampicillin]
- MIC [2, 18]: 0.25 µg/mL
- MIC [2, 9]: 1 µg/mL (≈ 2.86 µM)
- MIC [3, 10]: 4 µg/mL
- MIC [3, 11]: 4 µg/mL (≈ 11.4 µM)
- MIC [4, 12]: > 512 µg/mL
- MIC [4, 13]: > 512 µg/mL

Compound: O=C(O)c1cn(C2CC2)c2cc(N3CCNCC3)c(F)cc2c1=O [Ciprofloxacin]
- MIC [2, 18]: 0.25 µg/mL
- MIC [2, 9]: 0.5 µg/mL (≈ 1.51 µM)
- MIC [3, 10]: 0.008 µg/mL
- MIC [3, 11]: 0.0078 µg/mL (≈ 0.0235 µM)
- MIC [4, 12]: 1 µg/mL
- MIC [4, 13]: 4 µg/mL (≈ 12.1 µM)

Compound: [H]/N=C(/N)N[C@H]1[C@H](O)[C@@H](O)[C@H](O[C@@H]2O[C@@H](C)[C@](O)(C=O)[C@H]2O[C@@H]2O[C@@H](CO)[C@H](O)[C@@H](O)[C@@H]2NC)[C@@H](N/C(N)=N\[H])[C@@H]1O [Streptomycin]
- MIC ([5]; Staphylococcus aureus, strain WBG525, no chelator added (control), read-out: MIC Streptomycin): > 640 µg/mL
- MIC (100% inhibition) antibiotic [5, 14]: >640 µg/mL
- MIC (100% inhibition) antibiotic [5, 15]: 640* μg/ml
- MIC (100% inhibition) antibiotic [5, 16]: 160* μg/ml

Compound: COC(=O)c1ccc(O)cc1 [Paraben, methyl paraben]
- MIC ([8]; ATCC10231, 48 h, read-out: Sorbate or Paraben MIC, preservative alone, 2 days): 500 µg/mL (≈ 3290 µM)
- MIC ([8]; ATCC10231, 240 h, read-out: Sorbate or Paraben MIC, preservative alone, 10 days): 1000 µg/mL (≈ 6570 µM)

Compound: CN(C)[C@@H]1C(O)=C(C(N)=O)C(=O)[C@@]2(O)C(O)=C3C(=O)c4c(O)cccc4[C@@](C)(O)[C@H]3C[C@@H]12 [Tetracycline]
- MIC (100% inhibition) antibiotic [5, 17]: 40 µg/mL (≈ 90 µM)
